The values below come from patent US10973832B2, “Muscarinic M1 receptor agonists” (Heptares Therapeutics Limited, priority 2011, dated 2021).

Format in all cases: cell-based
The target of test [1] is T1, human muscarinic M4 receptor (Homo sapiens, UniProt P08173).
T1 construct: expressed in transfected cells
T1 sequence (P08173 1-479): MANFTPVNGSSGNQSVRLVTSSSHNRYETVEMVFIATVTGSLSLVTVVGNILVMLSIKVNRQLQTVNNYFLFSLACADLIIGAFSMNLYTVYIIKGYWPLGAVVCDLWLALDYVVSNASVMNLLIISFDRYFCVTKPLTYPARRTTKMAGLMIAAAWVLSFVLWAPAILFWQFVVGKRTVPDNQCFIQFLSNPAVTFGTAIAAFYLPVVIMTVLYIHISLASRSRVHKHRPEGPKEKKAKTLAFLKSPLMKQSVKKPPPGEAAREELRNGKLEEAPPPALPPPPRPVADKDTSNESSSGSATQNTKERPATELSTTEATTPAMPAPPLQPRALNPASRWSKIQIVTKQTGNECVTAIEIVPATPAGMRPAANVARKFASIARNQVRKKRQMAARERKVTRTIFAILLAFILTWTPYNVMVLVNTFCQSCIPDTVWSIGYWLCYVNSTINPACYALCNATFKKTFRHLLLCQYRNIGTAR
The test is described as follows: Phospho-ERK1/2 assay, muscarinic M4. Particulars: for EC50: phospho-ERK1/2 Alphascreen, read-out: pEC50 M4 (converted); for Emax: CHO, read-out: % Emax cf. ACh (M4). The procedure: (§1) Functional assays were performed using the Alphascreen Surefire phospho-ERK1/2 assay (Crouch & Osmond, Comb. Chem. High Throughput Screen, 2008). ERK1/2 phosphorylation is a downstream consequence of both Gq/11 and Gi/o protein coupled receptor activation, making it highly suitable for the assessment of M1, M3 (Gq/11 coupled) and M2, M4 receptors (Gi/o coupled), rather than using different assay formats for different receptor subtypes. CHO cells stably expressing the human muscarinic M1, M2, M3 or M4 receptor were plated (25K/well) onto 96-well tissue culture plates in MEM-alpha+10% dialysed FBS. Once adhered, cells were serum-starved overnight. Agonist stimulation was performed by the addition of 5 μL agonist to the cells for 5 min (37° C.). Media was removed and 50 μL of lysis buffer added. After 15 min, a 4 μL sample was transferred to 384-well plate and 7 μL of detection mixture added. Plates were incubated for 2 h with gentle agitation in the dark and then read on a PHERAstar plate reader.
(§2) pEC50 and Emax figures were calculated from the resulting data for each receptor subtype.

The target of test [2] is T2, human muscarinic M1 receptor (Homo sapiens, UniProt P11229).
T2 sequence (P11229 1-460): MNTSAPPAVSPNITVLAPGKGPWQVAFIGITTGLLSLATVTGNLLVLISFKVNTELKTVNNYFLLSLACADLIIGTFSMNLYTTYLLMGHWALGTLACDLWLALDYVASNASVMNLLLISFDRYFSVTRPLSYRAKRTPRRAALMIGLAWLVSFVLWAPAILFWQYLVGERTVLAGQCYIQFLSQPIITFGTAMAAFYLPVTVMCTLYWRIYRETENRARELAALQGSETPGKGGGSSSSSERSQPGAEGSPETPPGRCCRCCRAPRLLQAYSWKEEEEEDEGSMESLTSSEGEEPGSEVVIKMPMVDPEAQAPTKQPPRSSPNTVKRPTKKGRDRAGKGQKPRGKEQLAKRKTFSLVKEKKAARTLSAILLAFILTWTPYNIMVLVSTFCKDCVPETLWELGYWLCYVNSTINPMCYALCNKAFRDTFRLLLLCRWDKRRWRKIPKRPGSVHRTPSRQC
The test is described as follows: Phospho-ERK1/2 assay, muscarinic M1. Particulars: for EC50: CHO cells expressing human M1, phospho-ERK1/2 Alphascreen, read-out: pEC50 M1 (converted); for Emax: CHO, read-out: % Emax cf. ACh (M1). On the procedure: as §1, §2

Test [3] addresses T3, human muscarinic M2 receptor (Homo sapiens, UniProt P08172).
T3 sequence (P08172 1-466): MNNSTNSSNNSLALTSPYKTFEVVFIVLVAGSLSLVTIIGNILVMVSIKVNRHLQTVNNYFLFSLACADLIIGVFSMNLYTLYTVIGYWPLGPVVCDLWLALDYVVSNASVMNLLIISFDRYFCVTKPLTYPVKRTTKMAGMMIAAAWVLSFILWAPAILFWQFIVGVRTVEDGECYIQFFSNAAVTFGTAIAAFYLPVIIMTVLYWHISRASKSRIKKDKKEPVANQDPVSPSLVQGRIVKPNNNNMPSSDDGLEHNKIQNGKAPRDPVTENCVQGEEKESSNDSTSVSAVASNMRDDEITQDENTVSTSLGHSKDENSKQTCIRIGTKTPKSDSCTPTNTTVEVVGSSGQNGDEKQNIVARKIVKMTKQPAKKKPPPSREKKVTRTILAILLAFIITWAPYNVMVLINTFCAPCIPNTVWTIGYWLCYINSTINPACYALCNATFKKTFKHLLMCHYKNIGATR
In words: Phospho-ERK1/2 assay, muscarinic M2. The conditions noted are these: for EC50: CHO cells expressing human M2, phospho-ERK1/2 Alphascreen, read-out: pEC50 M2 (converted); for Emax: CHO, read-out: % Emax cf. ACh (M2). On the procedure:
as §1, §2
On the technique in general: Bead proximity is the source of the signal in Alpha formats.

For test [4], the target named is T4, human muscarinic M3 receptor (Homo sapiens, UniProt P20309).
T4 construct: expressed in transfected cells
The test is described as follows: Phospho-ERK1/2 assay, muscarinic M3. Particulars: for EC50: phospho-ERK1/2 Alphascreen, read-out: pEC50 M3 (converted); for Emax: CHO, read-out: % Emax cf. ACh (M3). On the procedure:
as §1, §2

T4 sequence (P20309 whole entry): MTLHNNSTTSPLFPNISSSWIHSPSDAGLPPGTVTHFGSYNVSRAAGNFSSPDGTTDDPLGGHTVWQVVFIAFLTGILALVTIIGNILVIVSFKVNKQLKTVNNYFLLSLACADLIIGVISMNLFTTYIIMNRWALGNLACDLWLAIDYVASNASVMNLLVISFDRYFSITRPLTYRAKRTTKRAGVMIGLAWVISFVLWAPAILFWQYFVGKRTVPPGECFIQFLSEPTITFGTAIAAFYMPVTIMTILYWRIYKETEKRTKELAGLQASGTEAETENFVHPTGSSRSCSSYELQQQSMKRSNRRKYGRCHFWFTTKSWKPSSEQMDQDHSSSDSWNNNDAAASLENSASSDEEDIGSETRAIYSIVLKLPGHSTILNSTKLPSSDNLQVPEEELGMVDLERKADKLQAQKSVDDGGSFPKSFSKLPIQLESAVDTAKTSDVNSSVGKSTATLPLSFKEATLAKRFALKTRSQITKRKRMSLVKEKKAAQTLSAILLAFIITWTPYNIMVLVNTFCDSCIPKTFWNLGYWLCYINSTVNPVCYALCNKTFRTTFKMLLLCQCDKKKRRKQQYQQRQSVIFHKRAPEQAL

Take `CCOC(=O)N1CCCC(N2CCC(F)(C(=O)NC3(C)CCCC3)CC2)CC1` (stereo not drawn) [Example 48, ethyl 4-(4-fluoro-4-((1-methylcyclopentyl)carbamoyl)piperidin-1-yl)azepane-1-carboxylate]: the EC50 in test [1] (CHO cells expressing human M4) was 537 nM; in test [2], 61.7 nM; in test [3] it was greater than 20000 nM; in test [4] (CHO cells expressing human M3), greater than 20000 nM. In addition, the Emax (usually the maximal effect, on the per cent scale that the assay sets) in test [1] came out at 73%; in test [2], 88%; in test [3] it was 12%; in test [4], 12%.

Regarding `CCOC(=O)N1CCCC(N2CCC(F)(C(=O)NC3(C)CCC3)CC2)CC1` (stereo not drawn) [Example 50, ethyl 4-(4-fluoro-4-((1-methylcyclobutyl)carbamoyl)piperidin-1-yl)azepane-1-carboxylate], the EC50 in test [1] (CHO cells expressing human M4) is 603 nM; in test [2], 19.5 nM; in test [3], greater than 20000 nM; in test [4] (CHO cells expressing human M3), greater than 20000 nM. Further, the Emax was determined as 90% in test [1], 102% in test [2], 17% in test [3] and 2% in test [4].

For the compound `CCOC(=O)N1CCC[C@H](N2CCC(C(=O)NC(C)(C)C)CC2)CC1` [Example 67, ethyl (4S)-4-[4-(tert-butylcarbamoyl)piperidin-1-yl]azepane-1-carboxylate], the EC50 is 501 nM in test [1] (CHO cells expressing human M4), 126 nM in test [2], greater than 20000 nM in test [3] and greater than 20000 nM in test [4] (CHO cells expressing human M3). For the same compound, the Emax in test [1] is 104%; in test [2], 114%; in test [3], 48%; in test [4], 4%.

For `CC(=O)OCC[N+](C)(C)C` [ACh], in test [1] (CHO cells expressing human M4, Emax relative to ACh), the “% Emax cf. ACh (M4)” value is given as “(110) %”. For the same compound, the “% Emax cf. ACh (M3)” value in test [4] (CHO cells expressing human M3, Emax relative to ACh) was “(112) %”.

Turning to `[2H]C([2H])([2H])C([2H])(C([2H])([2H])[2H])C([2H])([2H])NC(=O)C1CCN(C2CCCN(C(=O)OCC)CC2)CC1` (stereo not drawn) [Example 75, ethyl 4-(4-{[2-(^2H3)methyl(^2H6)propyl]carbamoyl}piperidin-1-yl)azepane-1-carboxylate], the EC50 is 794 nM in test [1] (CHO cells expressing human M4), 87.1 nM in test [2], greater than 20000 nM in test [3] and greater than 20000 nM in test [4] (CHO cells expressing human M3). Further, the Emax in test [1] is 87%; in test [2], 102%; in test [3], 14%; in test [4] it was 13%.

On to `CCOC(=O)N1CCCC(N2CCC(OC)(C(=O)NC3(C)CCC3)CC2)CC1` (stereo not drawn) [Example 79, ethyl 4-{4-methoxy-4-[(1-methylcyclobutyl)carbamoyl]piperidin-1-yl}azepane-1-carboxylate], for which the EC50 in test [1] (CHO cells expressing human M4) is 871 nM; in test [2], 97.7 nM; in test [3], greater than 20000 nM; in test [4] (CHO cells expressing human M3), greater than 20000 nM. The Emax stood at 27% in test [1], 113% in test [2], 7% in test [3] and 27% in test [4].

In the case of `CCOC(=O)N1CCCC(N2CCC(F)(C(=O)NC(C)(C)C(C)C)CC2)CC1` (stereo not drawn) [Example 44, ethyl 4-(4-fluoro-4-((2,3-dimethylbutan-2-yl)carbamoyl)piperidin-1-yl)azepane-1-carboxylate], the EC50 in test [1] (CHO cells expressing human M4) is 417 nM; in test [2] it was 31.6 nM; in test [3], greater than 20000 nM; in test [4] (CHO cells expressing human M3), greater than 20000 nM. Moreover, the Emax came to 113% in test [1], 104% in test [2], 19% in test [3] and 5% in test [4].

Regarding `CCOC(=O)N1CCC[C@@H](N2CCC(C(=O)NC(C)(C)C)CC2)CC1` [Example 68, ethyl (4R)-4-[4-(tert-butylcarbamoyl)piperidin-1-yl]azepane-1-carboxylate], the EC50 in test [1] (CHO cells expressing human M4) is 3720 nM; in test [2], 813 nM. The Emax was determined as 64% in test [1] and 94% in test [2].
